Experimental data as given in patent publication US10935552B2, “Aie luminogens for visualization and treatment of cancer” (THE HONG KONG UNIVERSITY OF SCIENCE AND TECHNOLOGY, priority 2015, dated 2021).

Legend:
ROS = ROS generation under white light with H2DCF-DA indicator; conditions: white light irradiation; dye 10 mM, H2DCF-DA 5 mM, ex 488 nm
Method: Fluorescence change of TPE-IQ-2O, H2DCF-DA (ROS indicator) and the mixture with different irradiation time of white light. […] Dye (TPE-IQ-2O): 10 mM; H2DCF-DA: 5 mM. Excitation wavelength: 488 nm.

HepG2 cells = assay: Cell imaging, HepG2 cells; assay type: cell-based, human; conditions: HepG2, 200 nM, 20 and 10 mins
Method: (§1) The PC-9, HepG2, and HCC827 cells were grown overnight on a 35 mm petri dish with a cover slip. The live cells were incubated with 200 nM of TPE-IQ-2O for 20 and 10 mins. In all the experiments, the cancer cells are fluorescent in solely staining.
(§2) HepG2 cells (human hepatocarcinoma cell line), PC-9 cells (human lung adenocarcinoma cell line), Hela cells (human cervical carcinoma cell line), and LX2 cells (normal cell, human hepatic stellate cell line) were stained with 200 nM DPA-IQ for 10 min. Images were taken under the same equipment settings. Scale bar: 30 μm. Excitation wavelength: 400-440 nm.

PC-9 cells = assay: Cell imaging, PC-9 cells; assay type: cell-based, human; conditions: PC-9, 200 nM, 20 and 10 mins
Method: as §1, §2

COS-7 cells = assay: Cell imaging under fluorescent microscope, COS-7 normal cells; assay type: cell-based, simian; conditions: COS-7 stained alone, 200 nM, 1-20 min
Method: Cell culture: HeLa cells were cultured in the MEM containing 10% FBS and 1% antibiotics (100 units/mL penicillin and 100 µg/mL streptomycin) in a 5% CO2 humidity incubator at 37° C. COS-7, MDA-MB-231, MCF-7, and MDCK-II cells were culture in the DMEM containing 10% FBS and antibiotics (100 units/mL penicillin and 100 µg/mL streptomycin) in a 5% CO2 humidity incubator at 37° C. Cell imaging: two different kind of cells were grown overnight on a 35 mm petri dish with a cover slip. The live cells were incubated with 200 nM of TPE-IQ-2O for 1, 5, 10, and 20 mins. […] Condition: 200 nM (Filter: both close; Channel 5; EX: 400-440 nm; Exposure time: bright field: 1000 ms Fluorescence: 1000 ms. Two different kinds of cells were grown overnight on a 35 mm petri dish with a cover slip. The live cells were incubated with 200 nM of TPE-IQ-2O for 20, 10, and 5 mins. The MCF-7 cells were stained by TPE-IQ-2O; the COS-7 cells were stained by TPE-IQ-2O; the MCF-7 cells and COS-7 cells were co-cultured and stained together by TPE-IQ-2O. Condition: 200 nM (Filter: both close; Channel 5; EX: 400-440 nm; Exposure time: bright field: 1000 ms Fluorescence: 1000 ms. Two different kinds of cells were grown overnight on a 35 mm petri dish with a cover slip. […] Condition: 200 nM (Filter: both close; Channel 5; EX: 400-440 nm; Exposure time: bright field: 1000 ms Fluorescence: 1000 ms.

Structure (SMILES): CCC[n+]1cc2ccc(C(=C(c3ccc(OC)cc3)c3ccc(OC)cc3)c3ccccc3)cc2c(-c2ccccc2)c1-c1ccccc1 [TPE-IQ-2O, 6-(2,2-bis(4-methoxyphenyl)-1-phenylvinyl)-3,4-diphenyl-2-propylisoquinolin-2-ium]
- ROS generation (H2DCF-DA fluorescence) (ROS): continuous ROS generation
- Fluorescence of stained cells (HepG2 cells): fluorescent
- Fluorescence of stained cells (PC-9 cells): fluorescent
- Fluorescence of stained cells (COS-7 cells): not stained
